We go through 42 compounds from ChEMBL document CHEMBL4364324, “Triazole derivatives as inhibitors of Alzheimer's disease: Current developments and structure-activity relationships” (Eur J Med Chem, 2019).

The target in assay [1] is T1, Acetylcholinesterase (Electrophorus electricus, UniProt O42275). The experiment in a line: Inhibition of electric eel AChE using acetylthiocholine iodide as substrate after 15 mins by spectrophotometric analysis.
Assay [2] concerns the target T1, Acetylcholinesterase. Briefly: Inhibition of electric eel AChE using acetylthiocholine iodide as substrate preincubated for 3 mins followed by substrate addition.
Assay [3] concerns the target T2, Cholinesterase (Homo sapiens, UniProt P06276). The experiment in a line: Inhibition of human BuChE at 100 uM using acetylthiocholine iodide as substrate after 10 secs measured at 30 s intervals for two minutes by Ellman's method relative to control.
The target of assay [4] is T3, Beta-secretase 1 (Homo sapiens, UniProt P56817). Briefly: Inhibition of BACE1 (unknown origin) expressed in baculovirus-expression system using Rh-EVNLDAEFK-Quencher substrate after 90 mins by FRET assay.
T3 sequence (P56817 whole entry): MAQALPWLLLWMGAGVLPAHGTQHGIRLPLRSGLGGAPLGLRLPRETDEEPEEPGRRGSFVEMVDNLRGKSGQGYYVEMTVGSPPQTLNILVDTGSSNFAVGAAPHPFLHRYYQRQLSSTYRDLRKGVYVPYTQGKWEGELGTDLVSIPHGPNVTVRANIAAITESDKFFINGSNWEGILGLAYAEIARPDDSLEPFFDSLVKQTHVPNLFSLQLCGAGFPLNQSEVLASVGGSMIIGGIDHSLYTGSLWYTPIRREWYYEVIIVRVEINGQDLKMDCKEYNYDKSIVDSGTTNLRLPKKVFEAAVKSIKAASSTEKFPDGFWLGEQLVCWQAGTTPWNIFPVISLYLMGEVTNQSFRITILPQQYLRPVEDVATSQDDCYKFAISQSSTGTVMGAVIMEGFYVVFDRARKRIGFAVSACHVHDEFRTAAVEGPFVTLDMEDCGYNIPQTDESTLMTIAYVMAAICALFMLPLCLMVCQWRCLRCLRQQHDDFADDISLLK
The target of assay [5] is T3, Beta-secretase 1. Briefly: Inhibition of BACE1 (unknown origin) at 25 uM relative to control.
Assay [6] addresses T2, Cholinesterase.
Description: Inhibition of BuChE (unknown origin) using butyrylthiocholine chloride as substrate preincubated for 15 mins followed by substrate addition measured after 30 mins by Ellman's method
Assay [7] deals with T2, Cholinesterase. Briefly: Inhibition of BuChE (unknown origin) by Ellman's method. Background: Ellman's reagent forms a yellow product with free thiols.
Assay [8] addresses T1, Acetylcholinesterase.
Description: Inhibition of electric eel AChE using acetylthiocholine iodide as substrate preincubated for 10 mins followed by substrate addition measured after 15 mins by Ellman's method
Assay [9] concerns the target Cholinesterase (Equus caballus) (UniProt P81908). Briefly: Inhibition of equine serum BuChE using butyrylthiocholine iodide as substrate preincubated for 10 mins followed by substrate addition measured after 15 mins by Ellman's method relative to control.
Assay [10] has as its target Cholinesterase (Equus caballus, UniProt P81908). The experiment in a line: Inhibition of equine serum BuChE using butyrylthiocholine iodide as substrate preincubated for 3 mins followed by substrate addition.
Assay [11] has as its target T2, Cholinesterase. The experiment in a line: Inhibition of BuChE (unknown origin) after 2 mins.
Assay [12] has as its system HCT-116. The experiment in a line: Cytotoxicity against human HCT116 cells after 18 hrs by MTT assay. It is filed as functional, cell-based. The note with it: HCT-116, 18 h. (Tetrazolium assays rely on reduction of a dye to a coloured formazan, in cell work by metabolically active cells.)
The target of assay [13] is T2, Cholinesterase. The source holds these as a separate data set.
Assay [14] has as its target T4, Amyloid-beta precursor protein (Homo sapiens, UniProt P05067). Briefly: Inhibition of amyloid beta (1 to 42) (unknown origin) self aggregation relative to control. The following applies: concentration not given here.
The target in assay [15] is T4, Amyloid-beta precursor protein.
For assay [16], the target named is T2, Cholinesterase. The experiment in a line: Inhibition of BuChE (unknown origin) at 25 uM relative to control.

T2 sequence (P06276 whole entry): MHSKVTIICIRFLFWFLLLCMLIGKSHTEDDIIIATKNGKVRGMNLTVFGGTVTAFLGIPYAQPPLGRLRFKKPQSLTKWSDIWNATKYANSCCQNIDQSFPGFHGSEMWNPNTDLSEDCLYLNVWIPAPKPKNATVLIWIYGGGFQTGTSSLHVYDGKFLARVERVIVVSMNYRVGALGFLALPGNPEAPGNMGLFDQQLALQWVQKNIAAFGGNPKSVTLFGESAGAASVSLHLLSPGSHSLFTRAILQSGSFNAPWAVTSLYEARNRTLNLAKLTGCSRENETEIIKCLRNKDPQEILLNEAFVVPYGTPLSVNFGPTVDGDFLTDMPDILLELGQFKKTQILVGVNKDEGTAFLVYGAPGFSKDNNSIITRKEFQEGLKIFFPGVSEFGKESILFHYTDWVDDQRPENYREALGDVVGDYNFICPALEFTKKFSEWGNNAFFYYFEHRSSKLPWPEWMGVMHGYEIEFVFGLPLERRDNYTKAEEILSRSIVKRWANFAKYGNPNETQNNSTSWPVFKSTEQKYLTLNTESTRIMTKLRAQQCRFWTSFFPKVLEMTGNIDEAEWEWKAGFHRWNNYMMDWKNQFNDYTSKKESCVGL
T1 sequence (O42275 whole entry): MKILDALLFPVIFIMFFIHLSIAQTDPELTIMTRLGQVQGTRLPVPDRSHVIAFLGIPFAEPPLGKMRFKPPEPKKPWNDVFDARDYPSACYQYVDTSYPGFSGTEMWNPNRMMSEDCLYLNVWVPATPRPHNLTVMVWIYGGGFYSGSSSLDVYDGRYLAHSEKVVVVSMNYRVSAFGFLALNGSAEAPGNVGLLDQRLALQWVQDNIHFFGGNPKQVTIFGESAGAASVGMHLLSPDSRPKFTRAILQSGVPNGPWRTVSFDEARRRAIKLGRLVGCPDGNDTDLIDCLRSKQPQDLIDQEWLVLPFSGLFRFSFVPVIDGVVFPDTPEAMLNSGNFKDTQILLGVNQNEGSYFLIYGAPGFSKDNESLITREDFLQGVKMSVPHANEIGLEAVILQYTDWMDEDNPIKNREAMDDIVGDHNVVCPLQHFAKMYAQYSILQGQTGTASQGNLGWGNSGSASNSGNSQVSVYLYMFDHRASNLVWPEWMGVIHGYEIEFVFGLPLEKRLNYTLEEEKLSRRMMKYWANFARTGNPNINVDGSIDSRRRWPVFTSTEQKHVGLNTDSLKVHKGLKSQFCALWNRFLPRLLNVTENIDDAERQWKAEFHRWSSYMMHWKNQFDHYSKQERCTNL
T4 sequence (P05067 whole entry): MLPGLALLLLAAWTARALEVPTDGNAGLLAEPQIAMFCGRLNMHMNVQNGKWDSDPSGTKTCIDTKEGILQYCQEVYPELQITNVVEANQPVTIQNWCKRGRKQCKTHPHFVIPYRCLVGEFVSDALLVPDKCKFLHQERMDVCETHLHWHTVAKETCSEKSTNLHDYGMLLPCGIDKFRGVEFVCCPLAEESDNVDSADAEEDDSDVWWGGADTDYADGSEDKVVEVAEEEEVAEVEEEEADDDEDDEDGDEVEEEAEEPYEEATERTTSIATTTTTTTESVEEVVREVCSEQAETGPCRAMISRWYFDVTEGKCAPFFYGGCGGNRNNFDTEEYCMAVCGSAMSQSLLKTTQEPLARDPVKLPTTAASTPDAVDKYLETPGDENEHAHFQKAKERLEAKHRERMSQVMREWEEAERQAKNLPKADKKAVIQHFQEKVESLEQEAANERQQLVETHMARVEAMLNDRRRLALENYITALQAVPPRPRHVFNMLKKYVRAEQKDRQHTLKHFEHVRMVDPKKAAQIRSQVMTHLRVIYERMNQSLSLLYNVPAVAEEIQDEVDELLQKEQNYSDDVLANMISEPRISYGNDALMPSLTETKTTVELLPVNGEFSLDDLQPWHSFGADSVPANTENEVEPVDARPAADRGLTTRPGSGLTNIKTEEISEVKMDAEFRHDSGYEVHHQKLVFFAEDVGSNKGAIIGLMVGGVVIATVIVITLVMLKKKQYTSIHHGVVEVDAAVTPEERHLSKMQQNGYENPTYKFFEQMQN
Sequence of Cholinesterase (Equus caballus, UniProt P81908) (P81908 whole entry): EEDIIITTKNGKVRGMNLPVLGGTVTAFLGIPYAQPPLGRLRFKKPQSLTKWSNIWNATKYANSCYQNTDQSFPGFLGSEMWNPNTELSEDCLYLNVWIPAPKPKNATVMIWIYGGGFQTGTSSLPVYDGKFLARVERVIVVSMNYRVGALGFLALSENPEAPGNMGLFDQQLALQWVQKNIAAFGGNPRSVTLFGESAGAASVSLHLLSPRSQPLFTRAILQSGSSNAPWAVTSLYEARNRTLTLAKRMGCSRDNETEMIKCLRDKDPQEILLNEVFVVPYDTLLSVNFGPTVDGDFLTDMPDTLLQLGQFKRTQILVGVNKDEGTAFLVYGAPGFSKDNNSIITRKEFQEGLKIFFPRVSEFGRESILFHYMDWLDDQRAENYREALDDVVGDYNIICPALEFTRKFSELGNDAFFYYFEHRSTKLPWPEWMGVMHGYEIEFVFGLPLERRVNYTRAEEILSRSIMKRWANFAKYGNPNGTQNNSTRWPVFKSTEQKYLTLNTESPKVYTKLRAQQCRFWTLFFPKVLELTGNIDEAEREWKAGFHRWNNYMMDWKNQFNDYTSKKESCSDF
Sequence of Cholinesterase (Equus caballus) (P81908 whole entry): as above

For the compound `CCn1cc(-c2nnc(O)n2Cc2ccccc2)c(=O)c2cc(Cl)c(F)cc21`, half-maximal inhibition in assay [1] (IC50) required 1200 µM.
Consider `O=C(NC1CCN(Cc2ccccc2)CC1)c1cc2ccc(OCc3cn(Cc4ccc(Cl)c(Cl)c4)nn3)cc2oc1=O`, for which the IC50 – broadly, the concentration that gives 50% inhibition – in assay [2] fell in the range of 3.29 to 29.4 µM.
Take `COc1ccc2c(c1)C/C(=C\c1ccc(-c3cn(-c4ccnc5ccccc45)nn3)cc1)C2=O`: in assay [3], the inhibition – broadly, the change of the read-out against control, counted positive when it falls – came out at 0.2%.
For `Clc1ccc(Cn2cc(COc3ccc(/C=N/Nc4nnc(-c5ccccc5)c(-c5ccccc5)n4)cc3)nn2)cc1`, the IC50 in [4] came to 8.55 µM.
Compound `CC(C)(C)c1ccc(-c2cn(C[C@@H]3Cc4c([nH]c5ccccc45)CN3)nn2)cc1` displayed an inhibition in assay [5] of 18.9%.
In the case of `CN(C)CCCC1(c2ccc(F)cc2)CCc2cc(-c3nnc(-c4ccccc4I)[nH]3)ccc21` (stereo unspecified), the IC50 in assay [6] fell in the range of 4.52 to 9.52 µM.
In assay [7], `Cc1nn(CC(=O)N/N=C/c2ccc(Cl)cc2)c(=O)n1-c1ccc(C(=O)N/N=C/c2ccc(Cl)cc2)cc1` yielded an IC50 of 0.0557 µM.
Regarding `O=C(NC1CCN(Cc2ccccc2)CC1)c1cc2ccc(OCc3cn(Cc4ccccc4Br)nn3)cc2oc1=O`, the IC50 in assay [2] was 3.29 to 29.4 µM.
Take `Cc1ccc(OCc2nn3c(-c4cccc(Br)c4)nnc3s2)cc1`: the concentration for half-maximal inhibition (IC50) in assay [8] was 0.117 µM. In assay [9], this compound had an inhibition of 50%.
In [6], `CN(C)CCCC1(c2ccc(F)cc2)CCc2cc(-c3nnc(-c4ccc(F)cc4)[nH]3)ccc21` (stereo unspecified) registered an IC50 of 5.31 µM.
The compound `Cc1nn(CC(=O)N/N=C/c2cccc(Br)c2)c(=O)n1-c1ccc(C(=O)N/N=C/c2cccc(Br)c2)cc1` returned an IC50 in assay [7] of 0.0937 µM.
For `Cc1ccc(Cn2cc(COc3ccc4cc(C(=O)NC5CCN(Cc6ccccc6)CC5)c(=O)oc4c3)nn2)cc1C`, the 50% inhibitory concentration (IC50) in assay [10] is more than 100 µM; in assay [2], 1.8 µM.
Take `O=C(/C=C/c1ccc(O)c(O)c1)NCc1cn(C[C@@H]2Cc3c([nH]c4ccccc34)CN2)nn1`: in assay [5], the inhibition turned out to be 40%.
For `O=c1ccc2ccc(OCCCCCCCn3cc(CNc4c5c(nc6ccccc46)CCCC5)nn3)cc2o1`, the IC50 in assay [11] came out at 0.006 µM.
The compound `O=c1oc2ccccc2c2c1cnn2Cc1cn(-c2c(Cl)cc(Cl)cc2Cl)nn1` registered an IC50 in assay [12] of 6 µM.
Compound `O=C(CCCc1ccc(O)cc1)NCc1cn(C[C@@H]2Cc3c([nH]c4ccccc34)CN2)nn1` had an inhibition in [5] of 33%.
For the compound `Cc1cc(=O)oc2cc(OCCCCCn3cc(CNc4c5c(nc6cc(Cl)ccc46)CCCC5)nn3)ccc12`, the midpoint of inhibition in assay [11], the IC50, lay at 0.027 µM.
For the compound `O=C(NC1CCN(Cc2ccccc2)CC1)c1cc2ccc(OCc3cn(Cc4ccccc4Cl)nn3)cc2oc1=O`, the IC50 in assay [2] fell in the range of 3.29 to 29.4 µM.
In [3], `COc1cccc(Cn2cc(Cn3c4ccccc4c4ccccc43)nn2)c1` showed an IC50 of more than 100 µM.
In assay [7], `Cc1nn(CC(=O)N/N=C/c2ccc(Br)cc2O)c(=O)n1-c1ccc(C(=O)N/N=C/c2ccc(Br)cc2O)cc1` returned an IC50 of 0.0486 µM.
In assay [13], `CC1(C)Oc2cc3oc(=O)ccc3cc2CC1OC(=O)n1cc(CNC(=O)CCCCC2CCSS2)nn1` (stereo unspecified) gave an IC50 of 5890 µM.
In [2], `O=C(NC1CCN(Cc2ccccc2)CC1)c1cc2ccc(OCc3cn(Cc4ccc(F)cc4)nn3)cc2oc1=O` returned an IC50 of 3.29 to 29.4 µM.
In the case of `CN(C)C(=O)Oc1cccc([N+](C)(C)C)c1` [NEOSTIGMINE], half-maximal inhibition in [8] (IC50) was put at 16.3 µM.
Compound `Cc1ccccc1Cn1cc(Cn2c3ccccc3c3ccccc32)nn1` gave an IC50 in assay [3] of more than 100 µM.
`COc1cc(/C=C/C(=O)CC(=O)/C=C/c2ccc(O)c(OC)c2)ccc1O`: in [14], the inhibition stood at 95.1%.
For the compound `CCOC(=O)C(Cc1cn(-c2ccccc2C(F)(F)F)nn1)(Cc1cn(-c2ccccc2C(F)(F)F)nn1)NC(C)=O`, the inhibition in assay [14] stood at 96.9%. In [15], this compound came in with an IC50 of 8.06 µM.
Take `Fc1cccc(Cn2cc(Cn3c4ccccc4c4ccccc43)nn2)c1`: the IC50 in assay [3] was more than 100 µM.
As to `COc1ccc(/C=N/NC(=O)Cn2nc(C)n(-c3ccc(C(=O)N/N=C/c4ccc(OC)cc4)cc3)c2=O)cc1`, in assay [7], the IC50 was in the range of 0.0486 to 0.125 µM.
Consider `CN(C)CCCC1(c2ccc(F)cc2)CCc2cc(-c3nnc(-c4ccccc4F)[nH]3)ccc21` (stereo unspecified), for which the IC50 in assay [6] was 4.52 µM. This lies in the single-digit micromolar range.
Turning to `CN(C)CCCC1(c2ccc(F)cc2)CCc2cc(-c3nnc(-c4cccc(F)c4)[nH]3)ccc21` (stereo unspecified), the IC50 in assay [6] lay in the range of 4.52 to 9.52 µM.
For the compound `O=C(NC1CCN(Cc2ccccc2)CC1)c1cc2ccc(OCc3cn(Cc4cccc(Cl)c4Cl)nn3)cc2oc1=O`, the IC50 in [2] lay within 3.29 to 29.4 µM.
On to `Cc1nn(CC(=O)N/N=C/c2ccc(Br)cc2)c(=O)n1-c1ccc(C(=O)N/N=C/c2ccc(Br)cc2)cc1`, for which, in assay [7], the IC50 was determined as 0.125 µM. This counts as sub-micromolar.
With `Cc1cccc(Cn2cc(Cn3c4ccccc4c4ccccc43)nn2)c1`, in assay [3], the IC50 is more than 100 µM.
In turn, `COc1ccc2c(c1)C(=O)/C(=C/c1ccc(-c3cn(-c4ccnc5ccccc45)nn3)cc1)C2` came in with an inhibition in assay [3] of 0%.
On to `Clc1ccc(-c2cn(C[C@@H]3Cc4c([nH]c5ccccc45)CN3)nn2)cc1Cl`, for which the inhibition in assay [5] and in assay [16] was 61.5% throughout.
For `O=[N+]([O-])c1ccc(Cn2cc(COc3ccc(/C=N/Nc4nnc(-c5ccccc5)c(-c5ccccc5)n4)cc3)nn2)cc1`, in assay [4], half-maximal inhibition (IC50) required 11.4 µM.
In turn, `Oc1ccc2cc(-c3cn(C[C@@H]4Cc5c([nH]c6ccccc56)CN4)nn3)ccc2c1` registered an inhibition in [5] of 30.4%.
Take `COc1cc(-c2nnc(-c3ccc4c(c3)CCC4(CCCN(C)C)c3ccc(F)cc3)[nH]2)ccc1O` (stereo unspecified): the IC50 in assay [6] was in the range of 4.52 to 9.52 µM.
Same read-out and setting: the value for `CN(C)CCCC1(c2ccc(F)cc2)CCc2cc(-c3nnc(-c4cccc(Cl)c4)[nH]3)ccc21` (stereo unspecified) was 4.52 to 9.52 µM.
`Cc1nn(CC(=O)N/N=C/c2ccccc2)c(=O)n1-c1ccc(C(=O)N/N=C/c2ccccc2)cc1` yielded an IC50 in assay [7] of 0.0702 µM. That is a double-digit nanomolar value.
On to `Fc1ccccc1Cn1cc(Cn2c3ccccc3c3ccccc32)nn1`, for which, in assay [3], the IC50 is more than 100 µM.
For `CCn1c(O)nnc1-c1cn(CC)c2ccc(C)cc2c1=O`, it took 1740 µM to reach half-maximal inhibition in assay [1] (IC50). This lies in the millimolar range.
